Consider 1 substance from patent EP1288226A1, “Modification of the expression levels of Toll-like receptor familiy members for influencing neurodegeneration and neuroprotection in the human central nervous system” (NEDERLANDSE ORGANISATIE VOOR …, priority 2001, dated 2003).

Assay in all cases: TLR expression in primary human microglia after stimulation, semi-quantitative RT-PCR
Holding throughout (type): cell-based
Common to all, as to details: aggregated peptide 5 µM, 6 h or 24 h

For experiment [1], the system named is TLR2. As for the experimental part:
(§1) Primary human microglia, oligodendrocytes and astrocytes used in this study were isolated from the human white matter samples obtained from the patients listed in Table 1, as previously described (Bajramovic et al., 2000a and 2000b; De Groot et al., 2000). Briefly, brain tissues dissected from corpus callosum or subcortical white matter were collected and blood vessels were removed. After a 20-min digestion in 0.25 % (w/v) trypsine (Sigma, St. Louis, MO) and 0.1 mg/ml DNAse (Boehringer Mannheim, Mannheim, Germany) the cell suspension was gently triturated and washed with DMEM/HAM-F10 medium containing 10 % (v/v) FCS and antibiotic supplements. After passage through a 100-µm filter, myelin was removed by Percoll gradient centrifugation. Erythrocytes were lysed by a 15-min incubation on ice with 155 mM NH4Cl, 1 mM KHCO3, 0.2 % (w/v) BSA.
(§2) Primary cultures of microglia, astrocytes and oligodendrocytes were set up in DMEM/HAM-F10 medium containing 10 % (v/v) FCS and antibiotic supplements. Recombinant human granulocyte-macrophage colony stimulating factor (rhGM-CSF, PeproTech Inc, USA) was added to microglial cultures every 3 days at a final concentration of […]. Cells were analyzed for TLR expression after 10-14 days following the start of the culture.
(§3) Total cellular RNA was isolated from human glia cells using RNAZol™B (Campro scientific, Veenendaal, The Netherlands) and 2.5 µg RNA was reverse transcribed, using reverse transcription system (Promega, Madison, USA). PCR amplifications were performed on 1 µl copy DNA and 49 µl PCR mix (40 µl milliQ + 5 µl MgCl2 (see below for concentration) + 1 µl 10 mM dNTP mix + 1 µl 20 pmol/µl primer + 1 µl 20 pmol/µl anti sense primer and 0.2 µl taq polymerase). For β-actin, TLR1, TLR2, TLR3, TLR5, TLR6, TLR7 and TLR 9, 22 mM MgCl2 was used, for TLR4, 15 mM MgCl2 and for TLR8, 30 mM MgCl2. Amounts of TLR-encoding mRNA for each TLR were calculated by comparing the yield of each amplicon after 40 cycles to that for β-actin, and by determining the amounts of β-actin encoding mRNA in each sample by competitive quantitative RT-PCR as described previously (Bajramovic et al., 2000a; Bajramovic et al., 2000b).
(§4) Amyloid-β-protein-derived peptide 1-42 (Bachem, Bubendorf, Switzerland) was dissolved in water at 1 mM and kept at 37°C for 1 week to allow for aggregation to occur. The aggregated peptide was added to cultured microglia at a final concentration of 5 µM and TLR expression was determined as described above after varying periods of incubation time. As another CNS-derived stimulant, human recombinant alpha B-crystallin (prepared by TNO Prevention and Health, Leiden) was used at a final concentration of 15 µg/mL.

Experiment [2] has as its system TLR3. The method, then: as §1, §2, §3, §4
For experiment [3], the system named is other TLR. The method, then:
as §1, §2, §3, §4

Where [4] appears, read: listed as Amyloid β protein-derived peptide 1-42.
The mark [5] stands for this setting: listed as amyloid β-protein derived peptide 1-42.

Regarding “amyloid β protein-derived peptide 1-42: Amyloid-β-protein-derived peptide 1-42 (Bachem), dissolved in water at 1 mM and kept at 37°C for 1 week to allow aggregation”, the “levels of TLR2-encoding mRNA” value was “rapid mild inductive effect” in experiment [1], “elevated expression” in experiment [1] (setting [4]) and “strong effects” in experiment [1] (setting [5]). The figures for the “levels of TLR3-encoding mRNA” value in experiment [2], in experiment [2] (setting [4]) and in experiment [2] (setting [5]) were “stronger inductive effects”, “elevated expression” and “strong effects”, respectively. For the same substance, the “expression of mRNA encoding other TLR” value in experiment [3] was “not influenced”; in experiment [3] (setting [4]) it was “not affecting”.
